We go through eleven molecules from US20230116972A1, “CD38 MODULATORS AND METHODS OF USE THEREOF” (Cytokinetics, Inc., priority 2021, published 2023).

By IC50 is commonly meant the concentration that gives 50% inhibition.

The target in one assay is T1, human CD38 (Homo sapiens, UniProt P28907).
T1 sequence (P28907 1-300): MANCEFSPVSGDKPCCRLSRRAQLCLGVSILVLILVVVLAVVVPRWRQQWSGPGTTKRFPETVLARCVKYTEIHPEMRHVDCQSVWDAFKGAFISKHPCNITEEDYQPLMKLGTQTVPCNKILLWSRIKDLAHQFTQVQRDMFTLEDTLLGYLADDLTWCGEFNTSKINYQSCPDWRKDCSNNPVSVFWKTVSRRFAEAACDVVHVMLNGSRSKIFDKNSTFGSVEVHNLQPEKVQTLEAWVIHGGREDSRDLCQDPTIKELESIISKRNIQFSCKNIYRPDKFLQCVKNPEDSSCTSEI
Briefly: human recombinant CD38 enzyme assay (hydrolysis of NAD+). The class given is biochemical. The settings on record: human recombinant CD38, 0.4 nM enzyme, 62.5 μM NAD+; read-out: hCD38 BioChem IC50. The procedure, abridged:
(§1)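 Steps: compound and recombinant enzyme are mixed, NAD+ is added, and the reaction runs 60 min at room temperature. An ADH/ethanol mix containing a CD38 inhibitor halts hydrolysis and forms NADH. After NaOH quench, resazurin plus diaphorase produce fluorescent resorufin, read at 540/590 nm.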

A further assay concerns the target T2, mouse CD38 (Mus musculus, UniProt P56528).
T2 sequence (P56528 1-304): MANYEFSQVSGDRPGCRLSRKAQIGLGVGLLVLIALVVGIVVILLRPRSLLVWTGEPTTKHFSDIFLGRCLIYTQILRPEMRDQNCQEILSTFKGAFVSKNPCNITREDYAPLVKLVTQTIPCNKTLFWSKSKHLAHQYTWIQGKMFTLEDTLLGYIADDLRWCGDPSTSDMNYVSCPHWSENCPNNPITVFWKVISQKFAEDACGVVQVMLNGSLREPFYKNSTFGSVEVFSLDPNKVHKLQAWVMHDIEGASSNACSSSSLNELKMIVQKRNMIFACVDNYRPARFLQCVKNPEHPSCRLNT
Briefly: mouse recombinant CD38 enzyme assay (hydrolysis of NAD+). The class given is biochemical. The conditions noted are these: read-out: mCD38 BioChem IC50. An outline of the steps:
as §1

For assay [1], the target named is T3, endogenous CD38 in HL60 cells (Homo sapiens, UniProt P28907).
T3 construct: endogenous in cells; host or cells: HL60 (leukemic cells, treated with all-trans retinoic acid)
T3 sequence (P28907 1-300): T1 sequence (P28907 1-300)
Briefly: cellular CD38 assay in HL60 cells (cellular NAD levels). The class given is cell-based. The conditions noted are these: all-trans retinoic acid, 24 hours, read-out: hCD38 HL60 ATRA NAD Cell Diaphorase IC50. An outline of the steps: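 Endogenous CD38 inhibition is inferred from NAD levels in HL60 cells after 24 h compound exposure at 20000 cells per well. A lytic cycling readout (0.2 U/mL diaphorase, 0.8 U/mL alcohol dehydrogenase, resazurin, FMN, ethanol, 0.2% Triton X-100, Tris/EDTA pH 8.4) ran 60 min at ambient temperature. Resorufin fluorescence was read at 540/590 nm.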

Molecules are shown by their SMILES.

For `COc1cc(-n2ccnc2)nc(C(=O)Nc2ccc(C(F)F)nc2)n1` [Compound 210, N-(6-(difluoromethyl)pyridin-3-yl)-4-(1H-imidazol-1-yl)-6-methoxypyrimidine-2-carboxamide], the IC50 on human CD38 came to 0.0016 µM; at mouse CD38 it was 0.0012 µM; in assay [1], 0.303 µM.

Consider `COc1cc(-c2cncn2C)nc(C(=O)N[C@H]2CC[C@H](OC)CC2)n1` [Compound 192, 4-Methoxy-N-((1r,4r)-4-methoxycyclohexyl)-6-(1-methyl-1H-imidazol-5-yl)pyrimidine-2-carboxamide], for which the IC50 at human CD38 stood at 0.0461 µM; on mouse CD38, 0.0055 µM; in assay [1], 3.76 µM.

In the case of `O=C(Nc1ccc(C(F)(F)F)nc1)c1cncc(-n2ccnc2)n1` [Compound 55, 6-(1H-imidazol-1-yl)-N-(6-(trifluoromethyl)pyridin-3-yl)pyrazine-2-carboxamide], the results for the IC50 (on human CD38; at mouse CD38; in assay [1]) were 0.005 µM, 0.01 µM and 0.522 µM, respectively.

With `C[C@H]1CC[C@H](NC(=O)c2cncc(-n3ccnc3)n2)CC1` [Compound 102, 6-(1H-imidazol-1-yl)-N-((1r,4r)-4-methylcyclohexyl)pyrazine-2-carboxamide], the IC50 at human CD38 was determined as 0.023 µM; on mouse CD38, 0.007 µM; in assay [1], 1.01 µM.

For the molecule `O=C(NC1CCCOC1)c1cccc(-n2ccnc2)n1` (stereo not drawn) [Compound 49, 6-(1H-imidazol-1-yl)-N-(tetrahydro-2H-pyran-3-yl)picolinamide], the results for the IC50 (on human CD38; on mouse CD38; in assay [1]) were 0.088 µM, 0.029 µM and 3.37 µM, respectively.

Consider `O=C(Nc1cccnc1)c1cccc(-n2ccnc2)c1` [Compound 9, 3-(1H-imidazol-1-yl)-N-(pyridin-3-yl)benzamide], for which the values for the IC50 (on human CD38; at mouse CD38; in assay [1]) were 1.24 µM, 0.432 µM and 5.98 µM, respectively.

On to `Cc1cc(NC(=O)c2cccc(-n3ccnc3)n2)ccn1` [Compound 21, 6-(1H-imidazol-1-yl)-N-(2-methylpyridin-4-yl)picolinamide], for which the IC50 was 0.003 µM at human CD38, 0.003 µM on mouse CD38 and 0.273 µM in assay [1].

As for `CO[C@H]1CC[C@H](NC(=O)c2cc([C@H]3CC[C@H](OC)CC3)nc(-c3cncn3C)n2)CC1` [Compound 316, N,6-bis((1r,4R)-4-methoxycyclohexyl)-2-(1-methyl-1H-imidazol-5-yl)pyrimidine-4-carboxamide], the results for the IC50 (on human CD38; at mouse CD38; in assay [1]) were 0.015 µM, 0.002 µM and 1.47 µM, respectively.

In the case of `Cn1cncc1-c1nc(C(=O)NC2CCC(F)(F)CC2)cc(C2CCOCC2)n1` [Compound 200, N-(4,4-difluorocyclohexyl)-2-(1-methyl-1H-imidazol-5-yl)-6-(tetrahydro-2H-pyran-4-yl)pyrimidine-4-carboxamide], the IC50 on human CD38 was found to be 0.0093 µM; on mouse CD38, 0.0019 µM; in assay [1], 2.31 µM.

Turning to `COc1cc(C(=O)Nc2ccc(C(F)(F)F)nc2)nc(-c2cncn2C)c1` [Compound 226, 4-methoxy-6-(1-methyl-1H-imidazol-5-yl)-N-(6-(trifluoromethyl)pyridin-3-yl)picolinamide], the results for the IC50 (at human CD38; on mouse CD38; in assay [1]) were 0.0204 µM, 0.0127 µM and 5.21 µM, respectively.

With `Cn1cncc1-c1nc(C(=O)Nc2ccc(C(F)(F)F)nc2)cc(C2(C)COC2)n1` [Compound 309, 2-(1-methyl-1H-imidazol-5-yl)-6-(3-methyloxetan-3-yl)-N-(6-(trifluoromethyl)pyridin-3-yl)pyrimidine-4-carboxamide], the IC50 is 0.0042 µM on human CD38, 0.0013 µM on mouse CD38 and 0.933 µM in assay [1].
